{
  "source": "patent US20100190856A1",
  "about": "“Novel Polyhydroxylated Compounds as Fatty Acid Synthase (FASN) Inhibitors” (UNIVERSIDAD COMPLUTENSE DE MADRID, priority 2007, published 2010)",
  "key": {"rat CPT-1": {"biological_target": "T1, rat CPT-1 (Rattus norvegicus, UniProt Q63704)", "T1 construct": "made in house; host or cells: Pichia pastoris GS115 (isolated intact mitochondria)", "T1 sequence (Q63704 1-772)": "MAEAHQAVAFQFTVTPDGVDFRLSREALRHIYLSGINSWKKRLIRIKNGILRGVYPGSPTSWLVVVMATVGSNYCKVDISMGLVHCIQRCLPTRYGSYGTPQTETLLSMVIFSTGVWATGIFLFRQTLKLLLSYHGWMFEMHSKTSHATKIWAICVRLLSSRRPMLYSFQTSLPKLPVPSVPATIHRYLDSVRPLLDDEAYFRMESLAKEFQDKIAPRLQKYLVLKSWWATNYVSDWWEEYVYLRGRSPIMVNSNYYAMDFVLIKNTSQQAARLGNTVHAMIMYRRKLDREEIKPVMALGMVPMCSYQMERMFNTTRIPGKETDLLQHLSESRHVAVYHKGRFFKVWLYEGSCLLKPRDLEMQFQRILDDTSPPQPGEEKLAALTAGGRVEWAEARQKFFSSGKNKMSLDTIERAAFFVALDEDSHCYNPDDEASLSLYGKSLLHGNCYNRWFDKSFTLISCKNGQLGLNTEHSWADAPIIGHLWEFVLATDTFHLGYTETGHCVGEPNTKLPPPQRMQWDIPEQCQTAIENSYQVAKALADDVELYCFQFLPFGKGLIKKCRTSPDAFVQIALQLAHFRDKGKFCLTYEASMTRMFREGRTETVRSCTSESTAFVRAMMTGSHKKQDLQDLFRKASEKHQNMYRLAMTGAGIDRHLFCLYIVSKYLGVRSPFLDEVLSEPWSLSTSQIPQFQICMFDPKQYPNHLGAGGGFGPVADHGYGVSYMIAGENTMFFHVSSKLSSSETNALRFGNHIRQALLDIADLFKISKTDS", "assay": "Carnitine palmitoyltransferase 1 (CPT-1) assay, yeast mitochondria", "assay_type": "biochemical", "set-up": "% CPT-1 activity: concentration or dose not given beside the values", "conditions": "for % CPT-1 activity: % of DMSO control, mitochondria of P. pastoris expressing rat CPT-1", "from_the_text": "The expression plasmid pRCPT-Iβ/pHW010 (provided by Gebre Woldegiorgis, Beaverton, Oreg. Published in Woldegiorgis G. et al. Biochem. Biophys. Res. Commun. 2004, 325, 660-4.) was linearized in the GAP gene promoter by digestion with AvrII and integrated into the GAPp locus of P. pastoris GS115 by electroporation. Histidine prototrophic transformants were selected on YND plates and grown on YND medium. Mitochondria were isolated by disrupting the yeast cells with glass beads as previously described.\nCPT activity was assayed by the forward exchange method using L-[^3H] carnitine as previously described (Nicot, C. et al., Biochem. Biophys. Res. Comm. 2004, 325, 2745-7). In a total volume of 0.5 mL, the standard enzyme assay mixture contained 0.2 mM L-[^3H]carnitine (˜5000 dpm/nmol), 80 μM palmitoyl-CoA, 20 mM HEPES (pH 7.0), 1% fatty acid-free albumin, and 40-75 mM KCl, with or without malonyl-CoA as indicated. Reactions were initiated by addition of isolated intact yeast mitochondria. The reaction was linear up to 4 min, and all incubations were done at 30° C. for 3 min. Reactions were stopped by addition of 6% perchloric acid and were then centrifuged at 2000 rpm for 7 min. The resulting pellet was suspended in water, and the product [^3H]palmitoylcarnitine was extracted with butanol at low pH. After centrifugation at 2000 rpm for 2 min, an aliquot of the butanol phase was transferred to a vial for radioactive counting."}, "FASN": {"biological_target": "T2, FASN (Homo sapiens, UniProt P49327)", "T2 construct": "endogenous in cells; host or cells: SK-Br3 breast cancer cells", "T2 sequence (P49327 whole entry)": "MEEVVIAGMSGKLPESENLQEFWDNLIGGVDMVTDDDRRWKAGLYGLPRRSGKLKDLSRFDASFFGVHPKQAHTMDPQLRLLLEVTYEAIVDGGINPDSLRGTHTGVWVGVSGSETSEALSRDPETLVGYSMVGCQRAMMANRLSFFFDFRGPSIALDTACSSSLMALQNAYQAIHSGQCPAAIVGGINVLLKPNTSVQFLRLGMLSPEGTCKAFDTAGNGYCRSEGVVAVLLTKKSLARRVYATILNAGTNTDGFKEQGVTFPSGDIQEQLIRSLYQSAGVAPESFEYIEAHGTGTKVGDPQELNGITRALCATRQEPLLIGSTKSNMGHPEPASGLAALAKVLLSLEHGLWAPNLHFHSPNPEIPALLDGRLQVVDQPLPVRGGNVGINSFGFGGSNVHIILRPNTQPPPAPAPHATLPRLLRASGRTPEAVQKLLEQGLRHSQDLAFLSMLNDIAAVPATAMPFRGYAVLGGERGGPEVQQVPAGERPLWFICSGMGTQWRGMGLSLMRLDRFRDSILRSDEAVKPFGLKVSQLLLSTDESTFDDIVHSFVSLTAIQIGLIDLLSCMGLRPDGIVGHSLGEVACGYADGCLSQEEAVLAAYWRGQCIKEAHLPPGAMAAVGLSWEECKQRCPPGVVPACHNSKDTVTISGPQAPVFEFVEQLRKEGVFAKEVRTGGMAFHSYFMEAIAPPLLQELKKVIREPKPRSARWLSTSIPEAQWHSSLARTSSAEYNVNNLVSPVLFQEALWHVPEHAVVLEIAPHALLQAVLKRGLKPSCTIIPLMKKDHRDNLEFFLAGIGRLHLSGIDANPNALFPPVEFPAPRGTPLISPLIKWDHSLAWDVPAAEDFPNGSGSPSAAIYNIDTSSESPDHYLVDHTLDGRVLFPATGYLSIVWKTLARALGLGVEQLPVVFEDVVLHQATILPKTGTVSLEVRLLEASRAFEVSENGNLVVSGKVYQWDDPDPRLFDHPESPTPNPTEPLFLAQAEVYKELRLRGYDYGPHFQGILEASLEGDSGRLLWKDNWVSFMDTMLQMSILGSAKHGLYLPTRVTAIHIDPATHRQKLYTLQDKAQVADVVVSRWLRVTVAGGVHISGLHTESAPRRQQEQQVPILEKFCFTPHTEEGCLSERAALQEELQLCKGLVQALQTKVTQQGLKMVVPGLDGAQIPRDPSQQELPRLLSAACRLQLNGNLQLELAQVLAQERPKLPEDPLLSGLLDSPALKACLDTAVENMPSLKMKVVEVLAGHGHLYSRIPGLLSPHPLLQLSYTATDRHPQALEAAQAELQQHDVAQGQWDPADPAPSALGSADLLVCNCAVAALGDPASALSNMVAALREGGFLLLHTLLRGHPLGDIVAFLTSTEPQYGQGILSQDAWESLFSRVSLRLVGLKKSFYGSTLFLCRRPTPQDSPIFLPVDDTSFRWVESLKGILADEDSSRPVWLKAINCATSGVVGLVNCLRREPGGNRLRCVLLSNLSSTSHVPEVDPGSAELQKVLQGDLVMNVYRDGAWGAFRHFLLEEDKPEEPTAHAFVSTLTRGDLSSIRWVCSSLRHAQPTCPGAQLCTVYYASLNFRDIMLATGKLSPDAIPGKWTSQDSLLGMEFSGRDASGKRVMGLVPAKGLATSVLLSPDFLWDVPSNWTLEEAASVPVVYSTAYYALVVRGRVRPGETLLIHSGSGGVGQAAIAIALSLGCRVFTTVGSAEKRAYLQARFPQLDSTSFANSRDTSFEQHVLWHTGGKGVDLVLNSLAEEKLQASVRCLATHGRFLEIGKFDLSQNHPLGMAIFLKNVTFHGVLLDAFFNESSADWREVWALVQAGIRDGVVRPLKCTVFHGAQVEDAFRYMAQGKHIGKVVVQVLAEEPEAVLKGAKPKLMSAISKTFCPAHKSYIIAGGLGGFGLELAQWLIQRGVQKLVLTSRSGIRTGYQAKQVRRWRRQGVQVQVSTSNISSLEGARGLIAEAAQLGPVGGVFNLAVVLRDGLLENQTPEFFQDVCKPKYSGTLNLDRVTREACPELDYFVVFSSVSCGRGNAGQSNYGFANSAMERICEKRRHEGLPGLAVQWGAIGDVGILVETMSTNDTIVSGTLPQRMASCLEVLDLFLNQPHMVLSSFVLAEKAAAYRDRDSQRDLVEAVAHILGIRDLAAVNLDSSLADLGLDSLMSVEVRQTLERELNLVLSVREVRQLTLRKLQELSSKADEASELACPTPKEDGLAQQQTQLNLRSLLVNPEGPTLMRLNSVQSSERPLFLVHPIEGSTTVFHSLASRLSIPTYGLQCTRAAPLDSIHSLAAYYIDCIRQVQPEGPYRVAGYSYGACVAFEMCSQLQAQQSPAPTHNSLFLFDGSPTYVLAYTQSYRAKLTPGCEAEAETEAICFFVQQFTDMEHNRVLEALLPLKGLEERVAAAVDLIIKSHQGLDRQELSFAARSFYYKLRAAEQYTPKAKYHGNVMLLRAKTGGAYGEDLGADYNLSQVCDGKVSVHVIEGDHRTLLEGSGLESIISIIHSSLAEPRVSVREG", "assay": "Fatty acid synthase activity assay in SK-Br3 cells (NADPH oxidation, particle-free supernatants)", "assay_type": "cell-based", "set-up": "FASN activity, % of control cells / FASN activity reduced to / reduction of FASN activity: concentration or dose not given beside the values", "conditions": "for inhibition of FASN activity (in words): SK-Br3 cells treated 6, 12 and 24 hours; for FASN activity, % of control cells: SK-Br3 cells, 24 h exposure", "description": "FASN activity of compounds a, b, e, f, h, i, k, m and q was assayed in particle-free supernatants by recording spectrophotometrically at 37° C. (Lambda Bio 20, Perkin Elmer, EUA; using UV Kinlab 2.80.02 software) the decrease of A340nm due to the oxidation of NADPH, as we previously described. After 6, 12, 24 h of exposure to the tested compound, the cells were harvested by treatment with trypsin-EDTA solution, pelleted by centrifugation, washed twice and resuspended in cold PBS. The cells were sonicated during 30 min at 4° C. (PSelecta ultrasons) and centrifuged for 15 min at 4° C. to keep supernatants particle-free. A sample was taken to measure the protein content by a BioRad assay (Bio-Rad Laboratories). One-hundred and twenty micrograms of protein were pre-incubated during 15 min at 37° C. in 0.2 M of potassium phosphate buffer, pH 7.0, for temperature equilibration. The sample was then added to the reaction mixture: 200 mM potassium phosphate buffer, pH 7.0, 1 mM EDTA (Sigma), 1 mM dithiothreitol (Sigma), 30 μM acetyl-CoA (Sigma), 0.24 mM NADPH (Sigma), in 0.3 mL reaction volume were monitored at 340 nm for 3 min to measure the background NADPH oxidation. After the addition of 50 μM of malonyl-CoA (Sigma), the reaction was assayed for additional 10 min to determine FASN-dependent oxidation of NADPH. Rates were corrected for the background rate of NADPH oxidation in the presence of acetyl-CoA. FASN activity was expressed in nmol NADPH oxidized min^−1 mg protein^−1."}},
  "note": "“Also recorded” adds a separate entry of the source.",
  "data": [
    {"smiles": "O=C(Oc1cc(OC(=O)c2cc(O)c(O)c(O)c2)c2ccccc2c1)c1cc(O)c(O)c(O)c1", "note": "[f, 1,3-bis[(3,4,5-trihydroxybenzoyl)oxy]naphthalene]", "values": [
      {"measurement": "stimulation of CPT-1 activity (in words)", "setting": "rat CPT-1", "value": "did not stimulate CPT-1 activity; also recorded: without parallel stimulation of CPT-1 activity"},
      {"measurement": "% CPT-1 activity", "setting": "rat CPT-1", "value": "89 ± 4", "unit": "%"},
      {"measurement": "inhibition of FASN activity (in words)", "setting": "FASN", "value": "inhibit FASN activity; also recorded: decreased in a time-dependent manner"},
      {"measurement": "FASN activity, % of control cells", "setting": "FASN", "value": "10±4", "unit": "%"},
      {"measurement": "reduction of FASN activity", "setting": "FASN; after 6 h of cell exposure", "value": 50, "unit": "%"},
      {"measurement": "reduction of FASN activity", "setting": "FASN; after 24 h of cell exposure", "value": 50, "unit": "%"}
    ]},
    {"smiles": "O=C(Oc1ccc(OC(=O)c2cc(O)c(O)c(O)c2)c2ccccc12)c1cc(O)c(O)c(O)c1", "note": "[i, 1,4-bis[(3,4,5-trihydroxybenzoyl)oxy]naphthalene]", "values": [
      {"measurement": "stimulation of CPT-1 activity (in words)", "setting": "rat CPT-1", "value": "did not stimulate CPT-1 activity; also recorded: without parallel stimulation of CPT-1 activity"},
      {"measurement": "% CPT-1 activity", "setting": "rat CPT-1", "value": "90 ± 5", "unit": "%"},
      {"measurement": "inhibition of FASN activity (in words)", "setting": "FASN", "value": "inhibit FASN activity; also recorded: decreased in a time-dependent manner"},
      {"measurement": "FASN activity, % of control cells", "setting": "FASN", "value": "31±16", "unit": "%"},
      {"measurement": "reduction of FASN activity", "setting": "FASN; after 6 h of cell exposure", "value": 50, "unit": "%"},
      {"measurement": "reduction of FASN activity", "setting": "FASN; after 24 h of cell exposure", "value": 50, "unit": "%"}
    ]}
  ]
}
